Test results as given in US12371454B2, “Cyclic peptide compound having Kras inhibitory action” (priority 2019, dated 2025).
Starred links: 1 amine or outer side, 2 acyl side, 3 side chain; linkers in the order of their positions; H or OH if unused. Positions of bridges follow the written chain, without caps; N, C: chain ends. Non-standard residues stand in square brackets, D forms with d. Residues, ends and D or L forms follow the SMILES beside them. *: point of attachment. hPhe(3-Cl-4-CF3) = N[C@@H](CCc1ccc(C(F)(F)F)c(Cl)c1)C(=O)O; NMePhe(3-Br) = CN[C@@H](Cc1cccc(Br)c1)C(=O)O; NMePhe(4-Br) = CN[C@@H](Cc1ccc(Br)cc1)C(=O)O; NMePhe(4-Me) = CN[C@@H](Cc1ccc(C)cc1)C(=O)O; NMePhe(2-Me) = CN[C@@H](Cc1ccccc1C)C(=O)O; NMedβ3hAla = C[C@H](CC(=O)[*:2])N(C)[*:1]; NMePhe(2-F) = CN[C@@H](Cc1ccccc1F)C(=O)O; NMeY = CN[C@@H](Cc1ccc(O)cc1)C(=O)O; NMeF = CN[C@@H](Cc1ccccc1)C(=O)O; NMeD = CN[C@@H](CC(=O)O)C(=O)O; NMeL = CN[C@@H](CC(C)C)C(=O)O; NMeV = CN[C@H](C(=O)O)C(C)C; Piperidide = C1CCN(*)CC1; Ac5c = NC1(C(=O)O)CCCC1; Sar = CNCC(=O)O

Legend:
[1] = molecular target: T1, Kras and SOS1 (biotin-tagged human Kras loaded with GDP, His-tagged human SOS1) (Homo sapiens, UniProt P01116, G12D); assay: Protein-protein interaction inhibition between Kras and SOS1 (KrasGl2D-SOS PPI) using AlphaScreen; format: binding; conditions: AlphaScreen; biotin-tagged human Kras loaded with GDP, His-tagged human SOS1; read-out: KRAS G12D-SOS PPI IC50
T1 construct: made in house; host or cells: E. coli (stated for Kras only)
How it was run: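 Read-out is acceptor-bead light at 520-620 nm, arising when 680 nm-irradiated nickel donor beads pass singlet oxygen to streptavidin acceptors. The bead pair links His-tagged SOS1 with biotin-tagged, GDP-bound Kras from E. coli.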

[2] = tested on: Human pancreatic cancer cell line AsPC-1; assay: Measurement of AsPC-1 cell growth inhibition (AsPC-1 CGI); format: cell-based; conditions: 96 h
How it was run: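 AsPC-1 cells in 15% FBS RPMI-1640 were exposed to test compound for 96 hours at 37° C, with CellTiter-Glo as endpoint.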

T1 sequence (P01116 1-188 isoform P01116-2 G12D): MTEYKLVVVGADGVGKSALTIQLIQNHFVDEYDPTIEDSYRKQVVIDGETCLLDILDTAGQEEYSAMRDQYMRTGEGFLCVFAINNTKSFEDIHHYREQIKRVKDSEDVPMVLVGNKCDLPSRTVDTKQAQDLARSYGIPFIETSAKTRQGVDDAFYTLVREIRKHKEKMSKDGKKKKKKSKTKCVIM

CC[C@H](C)[C@@H]1NC(=O)[C@H](CC(C)C)N(C)C(=O)C[C@@H](C(=O)N2CCCCC2)N(C)C(=O)[C@H](C(C)C)N(C)C(=O)C2(CCCC2)NC(=O)[C@@H]2CCCN2C(=O)[C@H](CCc2ccc(C(F)(F)F)c(Cl)c2)NC(=O)CN(C)C(=O)[C@H](Cc2ccccc2F)N(C)C(=O)CN(C)C(=O)CN(C)C1=O [Compound 1583] ([NMeL]I[Sar][Sar][NMePhe(2-F)][Sar][hPhe(3-Cl-4-CF3)]P[Ac5c][NMeV][NMeD]-Piperidide; lactam N-11)
IC50 [1]: 0.012 µM
IC50 [2]: 0.1 to 0.5 µM

CC[C@H](C)[C@@H]1NC(=O)[C@H](CC(C)C)N(C)C(=O)C[C@@H](C(=O)N2CCCCC2)N(C)C(=O)[C@H](C(C)C)N(C)C(=O)C2(CCCC2)NC(=O)[C@@H]2CCCN2C(=O)[C@H](CCc2ccc(C(F)(F)F)c(Cl)c2)NC(=O)CN(C)C(=O)[C@H](Cc2ccccc2C)N(C)C(=O)CN(C)C(=O)CN(C)C1=O [Compound 1584] ([NMeL]I[Sar][Sar][NMePhe(2-Me)][Sar][hPhe(3-Cl-4-CF3)]P[Ac5c][NMeV][NMeD]-Piperidide; lactam N-11)
IC50 [1]: 0.0095 µM
IC50 [2]: 0.1 to 0.5 µM

CC[C@H](C)[C@@H]1NC(=O)[C@H](CC(C)C)N(C)C(=O)C[C@@H](C(=O)N2CCCCC2)N(C)C(=O)[C@H](C(C)C)N(C)C(=O)C2(CCCC2)NC(=O)[C@@H]2CCCN2C(=O)[C@H](CCc2ccc(C(F)(F)F)c(Cl)c2)NC(=O)CN(C)C(=O)[C@H](Cc2ccc(OC)cc2)N(C)C(=O)CN(C)C(=O)CN(C)C1=O [Compound 1588] ([NMeL]I[Sar][Sar][NMeY](Me)[Sar][hPhe(3-Cl-4-CF3)]P[Ac5c][NMeV][NMeD]-Piperidide; lactam N-11)
IC50 [1]: 0.0041 µM
IC50 [2]: 0.1 to 0.5 µM

CC[C@H](C)[C@@H]1NC(=O)[C@H](CC(C)C)N(C)C(=O)C[C@@H](C)N(C)C(=O)[C@H](C(C)C)N(C)C(=O)C2(CCCC2)NC(=O)[C@@H]2CCCN2C(=O)[C@H](CCc2ccc(C(F)(F)F)c(Cl)c2)NC(=O)CN(C)C(=O)[C@H](COc2ccccc2Cl)N(C)C(=O)CN(C)C(=O)CN(C)C1=O [Compound 1589]
IC50 [1]: 0.039 µM
IC50 [2]: 0.1 to 0.5 µM

CC[C@H](C)[C@@H]1NC(=O)[C@H](CC(C)C)N(C)C(=O)C[C@@H](C)N(C)C(=O)[C@H](C(C)C)N(C)C(=O)C2(CCCC2)NC(=O)[C@@H]2CCCN2C(=O)[C@H](CCc2ccc(C(F)(F)F)c(Cl)c2)NC(=O)CN(C)C(=O)[C@H](Cc2ccc(Br)cc2)N(C)C(=O)CN(C)C(=O)CN(C)C1=O [Compound 1590] (cyclo([Ac5c][NMeV][NMedβ3hAla][NMeL]I[Sar][Sar][NMePhe(4-Br)][Sar][hPhe(3-Cl-4-CF3)]P))
IC50 [1]: 0.0032 µM
IC50 [2]: 0.05 to 0.1 µM

CC[C@H](C)[C@@H]1NC(=O)[C@H](CC(C)C)N(C)C(=O)C[C@@H](C(=O)N2CCCCC2)N(C)C(=O)[C@H](C(C)C)N(C)C(=O)C2(CCCC2)NC(=O)[C@@H]2CCCN2C(=O)[C@H](CCc2ccc(C(F)(F)F)c(Cl)c2)NC(=O)CN(C)C(=O)[C@H](Cc2ccc(C)cc2)N(C)C(=O)CN(C)C(=O)CN(C)C1=O [Compound 1594] ([NMeL]I[Sar][Sar][NMePhe(4-Me)][Sar][hPhe(3-Cl-4-CF3)]P[Ac5c][NMeV][NMeD]-Piperidide; lactam N-11)
IC50 [1]: 0.0032 µM
IC50 [2]: 0.1 to 0.5 µM

CC[C@H](C)[C@@H]1NC(=O)[C@H](CC(C)C)N(C)C(=O)C[C@@H](C)N(C)C(=O)[C@H](C(C)C)N(C)C(=O)C2(CCCC2)NC(=O)[C@@H]2CCCN2C(=O)[C@H](CCc2ccc(C(F)(F)F)c(Cl)c2)NC(=O)CN(C)C(=O)[C@H](Cc2cccc(Br)c2)N(C)C(=O)CN(C)C(=O)CN(C)C1=O [Compound 1597] (cyclo([Ac5c][NMeV][NMedβ3hAla][NMeL]I[Sar][Sar][NMePhe(3-Br)][Sar][hPhe(3-Cl-4-CF3)]P))
IC50 [1]: 0.011 µM
IC50 [2]: 0.05 to 0.1 µM

CC[C@H](C)[C@@H]1NC(=O)[C@H](CC(C)C)N(C)C(=O)C[C@@H](C(=O)N2CCCCC2)N(C)C(=O)[C@H](C(C)C)N(C)C(=O)C2(CCCC2)NC(=O)[C@@H]2CCCN2C(=O)[C@H](CCc2ccc(C(F)(F)F)c(Cl)c2)NC(=O)CN(C)C(=O)[C@H](Cc2ccccc2)N(C)C(=O)CN(C)C(=O)CN(C)C1=O [Compound 1598] ([NMeL]I[Sar][Sar][NMeF][Sar][hPhe(3-Cl-4-CF3)]P[Ac5c][NMeV][NMeD]-Piperidide; lactam N-11)
IC50 [1]: 0.0092 µM
IC50 [2]: 0.1 to 0.5 µM

CC[C@H](C)[C@@H]1NC(=O)[C@H](CC(C)C)N(C)C(=O)C[C@@H](C)N(C)C(=O)[C@H](C(C)C)N(C)C(=O)C2(CCCC2)NC(=O)[C@@H]2CCCN2C(=O)[C@H](CCc2ccc(C(F)(F)F)c(Cl)c2)NC(=O)CN(C)C(=O)[C@H](Cc2ccccc2F)N(C)C(=O)CN(C)C(=O)CN(C)C1=O [Compound 1599] (cyclo([Ac5c][NMeV][NMedβ3hAla][NMeL]I[Sar][Sar][NMePhe(2-F)][Sar][hPhe(3-Cl-4-CF3)]P))
IC50 [1]: 0.017 µM
IC50 [2]: 0.1 to 0.5 µM
